The source of these data is patent publication US10266548B2, “Substituted benzylindazoles for use as Bub1 kinase inhibitors in the treatment of hyperproliferative diseases” (Bayer Intellectual Property GmbH, priority 2011, dated 2019).

Read-outs that look alike come from different tables or passages of the source. Bounds are passed on as bounds.

Assay [1] concerns the target catalytic domain of human Bub1 (amino acids 704-1085) (Homo sapiens (Human), UniProt O43683). Description: Bub1 kinase assay (TR-FRET). The format is biochemical. The following applies: 10 μM ATP, 1 μM peptide substrate; read-out: Biological Assay 1: Bub1 kinase assay median IC50. A digest of the protocol:
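Phosphoserine product detected by TR-FRET (Eu-labeled anti-mouse IgG/anti-phosphoserine antibody to streptavidin-XL665) after 1 h at 22 °C. IC50 from 4-parameter logistic fit.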
Background: TR-FRET usually uses a lanthanide donor and a delayed reading to cut background.

For the next assay, the system named is HeLa cells. Put plainly: Proliferation assay (HeLa cell line). The format is cell-based. The following applies: Homo sapiens, 96 h, read-out: Biological Assay 2: Proliferation assay (HeLa cell line) median IC50. The protocol:
Cultivated tumor cells (cells were ordered from ATCC, except HeLa-MaTu and HeLa-MaTu-ADR, which were ordered from EPO-GmbH, Berlin) were plated at a density of 1000 to 5000 cells/well, depending on the growth rate of the respective cell line, in a 96-well multititer plate in 200 μL of their respective growth medium supplemented 10% fetal calf serum. After 24 hours, the cells of one plate (zero-point plate) were stained with crystal violet (see below), while the medium of the other plates was replaced by fresh culture medium (200 μl), to which the test substances were added in various concentrations (0 μM, as well as in the range of 0.001-10 μM; the final concentration of the solvent dimethyl sulfoxide was 0.5%). The cells were incubated for 4 days in the presence of test substances. Cell proliferation was determined by staining the cells with crystal violet: the cells were fixed by adding 20 μl/measuring point of an 11% glutaric aldehyde solution for 15 minutes at room temperature. After three washing cycles of the fixed cells with water, the plates were dried at room temperature. The cells were stained by adding 100 μl/measuring point of a 0.1% crystal violet solution (pH 3.0). After three washing cycles of the stained cells with water, the plates were dried at room temperature. The dye was dissolved by adding 100 μl/measuring point of a 10% acetic acid solution. […] The change of cell number, in percent, was calculated by normalization of the measured values to the aborbtion values of the zero-point plate (=0%) and the absorbtion of the untreated (0 μm) cells (=100%). The IC50 values were determined by means of a 4 parameter fit using the company's own software.

Chain of catalytic domain of human Bub1 (amino acids 704-1085) (O43683 704-1085): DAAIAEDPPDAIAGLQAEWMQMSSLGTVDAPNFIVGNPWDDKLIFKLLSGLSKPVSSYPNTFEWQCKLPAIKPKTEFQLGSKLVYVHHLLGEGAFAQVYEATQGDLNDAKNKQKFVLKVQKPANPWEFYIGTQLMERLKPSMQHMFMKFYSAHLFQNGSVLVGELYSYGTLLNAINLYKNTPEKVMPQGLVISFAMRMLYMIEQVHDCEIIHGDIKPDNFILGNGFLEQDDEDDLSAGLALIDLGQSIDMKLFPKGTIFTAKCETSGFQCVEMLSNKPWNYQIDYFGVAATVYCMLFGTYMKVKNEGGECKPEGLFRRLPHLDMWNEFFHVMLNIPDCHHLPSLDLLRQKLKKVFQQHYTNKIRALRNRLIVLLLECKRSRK

On to `CCOc1ccc(Cn2nc(-c3ncc(OC)c(Nc4ccncc4)n3)c3ccccc32)c(F)c1F` [Example 2-14-1, 2-[1-(4-ethoxy-2,3-difluorobenzyl)-1H-indazol-3-yl]-5-methoxy-N-(pyridin-4-yl)pyrimidin-4-amine], for which the IC50 in assay [1] turned out to be 8.3 nM; in the assay with HeLa cells it was 4700 nM.

With `COc1cnc(-c2nn(Cc3c(F)c(F)c(OCC(F)(F)F)c(F)c3F)c3ccccc23)nc1Nc1ccncc1` [Example 2-15-1, 5-methoxy-N-(pyridin-4-yl)-2-{1-[2,3,5,6-tetrafluoro-4-(2,2,2-trifluoroethoxy)benzyl]-1H-indazol-3-yl}pyrimidin-4-amine], the IC50 in assay [1] came to 38 nM; in the assay on HeLa cells (4 days, crystal violet), 4700 nM.

`COc1cnc(-c2nn(Cc3c(F)cc(F)cc3F)c3ccccc23)nc1Nc1ccncc1` [Example 2-17-1, 5-methoxy-N-(pyridin-4-yl)-2-[1-(2,4,6-trifluorobenzyl)-1H-indazol-3-yl]pyrimidin-4-amine]: the IC50 was 8.8 nM in assay [1] and no less than 10000 nM in the assay with HeLa cells.

With `COc1cnc(-c2nn(Cc3ccc(Cl)cc3Cl)c3ccccc23)nc1Nc1ccncc1` [Example 2-19-1, 2-[1-(2,4-dichlorobenzyl)-1H-indazol-3-yl]-5-methoxy-N-(pyridin-4-yl)pyrimidin-4-amine], the IC50 in assay [1] came to 10 nM; with HeLa cells (4 days, crystal violet), 3400 nM.

`COc1cnc(-c2nn(Cc3ccc(I)cc3F)c3ccccc23)nc1Nc1ccncc1` [Example 2-20-1, 2-[1-(2-fluoro-4-iodobenzyl)-1H-indazol-3-yl]-5-methoxy-N-(pyridin-4-yl)pyrimidin-4-amine]: the IC50 in assay [1] stood at 11 nM; in the assay on HeLa cells, 7300 nM.

Take `COc1cnc(-c2nn(Cc3ccccc3Br)c3ccccc23)nc1Nc1ccncc1` [Example 2-21-1, 2-[1-(2-bromobenzyl)-1H-indazol-3-yl]-5-methoxy-N-(pyridin-4-yl)pyrimidin-4-amine]: the IC50 was 12 nM in assay [1] and no less than 10000 nM with HeLa cells.

Regarding `COc1ccc(Cn2nc(-c3ncc(OC)c(Nc4ccncc4)n3)c3ccccc32)cc1` [Example 2-23-1, 5-methoxy-2-[1-(4-methoxybenzyl)-1H-indazol-3-yl]-N-(pyridin-4-yl)pyrimidin-4-amine], the figures for the IC50 (in assay [1]; in the assay with HeLa cells) were 13 nM and 9300 nM, respectively.

As to `COc1cnc(-c2nn(Cc3c(Cl)cc(OC(F)(F)F)cc3Cl)c3ccccc23)nc1N(Cc1c(Cl)cc(OC(F)(F)F)cc1Cl)c1ccncc1` [Example 2-26-2, N-[2,6-dichloro-4-(trifluoromethoxy)benzyl]-2-{1-[2,6-dichloro-4-(trifluoromethoxy)benzyl]-1H-indazol-3-yl}-5-methoxy-N-(pyridin-4-yl)pyrimidin-4-amine], the IC50 in assay [1] stood at 840 nM; in the assay with HeLa cells (4 days, crystal violet), 2900 nM.

For `COc1cnc(-c2nn(Cc3ccc4c(c3)NC(=O)CC4)c3ccccc23)nc1Nc1ccncc1` [Example 2-27-1, 7-({3-[5-methoxy-4-(pyridin-4-ylamino)pyrimidin-2-yl]-1H-indazol-1-yl}methyl)-3,4-dihydroquinolin-2(1H)-one], the IC50 in assay [1] is 20 nM; in the assay on HeLa cells (4 days, crystal violet) it was no less than 10000 nM.

On to `COc1cnc(-c2nn(Cc3ccc(I)cc3Cl)c3ccccc23)nc1Nc1ccncc1` [Example 2-28-1, 2-[1-(2-chloro-4-iodobenzyl)-1H-indazol-3-yl]-5-methoxy-N-(pyridin-4-yl)pyrimidin-4-amine], for which the IC50 stood at 22 nM in assay [1] and 8100 nM in the assay on HeLa cells.

Turning to `COc1cc(Cn2nc(-c3ncc(OC)c(Nc4ccncc4)n3)c3ccccc32)cc(OC)c1` [Example 2-29-1, 2-[1-(3,5-dimethoxybenzyl)-1H-indazol-3-yl]-5-methoxy-N-(pyridin-4-yl)pyrimidin-4-amine], the IC50 in assay [1] was 23 nM; in the assay on HeLa cells (4 days, crystal violet), 9000 nM.

For `COc1cnc(-c2nn(Cc3c(Cl)cccc3C(F)(F)F)c3ccccc23)nc1Nc1ccncc1` [Example 2-30-1, 2-{1-[2-chloro-6-(trifluoromethyl)benzyl]-1H-indazol-3-yl}-5-methoxy-N-(pyridin-4-yl)pyrimidin-4-amine], the IC50 in assay [1] came out at 23 nM; in the assay with HeLa cells (4 days, crystal violet) it was 2200 nM.

Turning to `COc1cnc(-c2nn(Cc3cc(F)ccc3Cl)c3ccccc23)nc1Nc1ccncc1` [Example 2-31-1, 2-[1-(2-chloro-5-fluorobenzyl)-1H-indazol-3-yl]-5-methoxy-N-(pyridin-4-yl)pyrimidin-4-amine], the IC50 in assay [1] is 28 nM; in the assay on HeLa cells (4 days, crystal violet) it was no less than 10000 nM.

For `COc1cnc(-c2nn(Cc3ccc(C#N)cc3F)c3ccccc23)nc1Nc1ccncc1` [Example 2-33-1, 3-fluoro-4-({3-[5-methoxy-4-(pyridin-4-ylamino)pyrimidin-2-yl]-1H-indazol-1-yl}methyl)benzonitrile], the IC50 in assay [1] is 38 nM; with HeLa cells (4 days, crystal violet) it was no less than 10000 nM.

On to `CCOC(=O)Cc1cccc(Cn2nc(-c3ncc(OC)c(Nc4ccncc4)n3)c3ccccc32)c1` [Example 2-35-1, ethyl [3-({3-[5-methoxy-4-(pyridin-4-ylamino)pyrimidin-2-yl]-1H-indazol-1-yl}methyl)phenyl]acetate], for which the IC50 in assay [1] is 52 nM; in the assay with HeLa cells (4 days, crystal violet) it was no less than 10000 nM.

In the case of `COc1cnc(-c2nn(Cc3ccc(F)cc3)c3ccccc23)nc1Nc1ccncc1` [Example 2-36-1, 2-[1-(4-fluorobenzyl)-1H-indazol-3-yl]-5-methoxy-N-(pyridin-4-yl)pyrimidin-4-amine], the IC50 was 58 nM in assay [1] and no less than 10000 nM in the assay on HeLa cells (4 days, crystal violet).

As for `COc1cnc(-c2nn(Cc3ccc(S(=O)(=O)NC4CC4)cc3)c3ccccc23)nc1Nc1ccncc1` [Example 2-37-1, N-cyclopropyl-4-({3-[5-methoxy-4-(pyridin-4-ylamino)pyrimidin-2-yl]-1H-indazol-1-yl}methyl)benzenesulfonamide], the IC50 in assay [1] is 71 nM; in the assay with HeLa cells (4 days, crystal violet) it was no less than 10000 nM.

With `COc1cnc(-c2nn(Cc3ccc4c(c3)OC(=O)C4)c3ccccc23)nc1Nc1ccncc1` [Example 2-38-1, 6-({3-[5-methoxy-4-(pyridin-4-ylamino)pyrimidin-2-yl]-1H-indazol-1-yl}methyl)-1-benzofuran-2(3H)-one], the IC50 is 76 nM in assay [1] and no less than 10000 nM in the assay on HeLa cells (4 days, crystal violet).

For `COc1cnc(-c2nn(Cc3c(F)cc(OC(F)F)cc3F)c3ccccc23)nc1Nc1ccncc1` [Example 2-39-1, 2-{1-[4-(difluoromethoxy)-2,6-difluorobenzyl]-1H-indazol-3-yl}-5-methoxy-N-(pyridin-4-yl)pyrimidin-4-amine], the results for the IC50 (in assay [1]; in the assay with HeLa cells) were 5.6 nM and 3600 nM, respectively.

As to `COc1cnc(-c2nn(Cc3ccc(C(=O)OC(C)(C)C)cc3Cl)c3ccccc23)nc1Nc1ccncc1` [Example 2-40-1, tert-butyl 3-chloro-4-({3-[5-methoxy-4-(pyridin-4-ylamino)pyrimidin-2-yl]-1H-indazol-1-yl}methyl)benzoate], the IC50 in assay [1] was determined as 120 nM; with HeLa cells (4 days, crystal violet), 5600 nM.

Regarding `CCOC(=O)C(C)(C)c1cccc(Cn2nc(-c3ncc(OC)c(Nc4ccncc4)n3)c3ccccc32)c1` [Example 2-41-1, ethyl 2-[3-({3-[5-methoxy-4-(pyridin-4-ylamino)pyrimidin-2-yl]-1H-indazol-1-yl}methyl)phenyl]-2-methylpropanoate], the figures for the IC50 (in assay [1]; in the assay on HeLa cells) were 150 nM and 7900 nM, respectively.
